What was measured:
SR-BI = assay: Immunoblot of SR-BI expression in tissues of estrogen-treated rats; format: in vivo, rat; conditions: 5 mg/kg subcutaneous for five consecutive days
Experimental: To determine the size of mSR-BI and its tissue distribution, a rabbit anti-mSR-BI polyclonal antibody was prepared by immunization of a 16 amino acid peptide (residues 495 to 509 from the predicted protein sequence of mSR-BI plus an additional N-terminal cysteine) coupled to keyhole limpet hemocyanin. This is referred to as anti-mSR-BI^495 antiserum. The antiserum was used for immunoblot analysis of cultured cells and murine tissues.
Post-nuclear cell extracts from ldlA and ldlA[mSR-BI] cells and membranes (post-nuclear 100,000×g pellets) from murine tissues were isolated, reduced, and separated by 6.5% SDS-polyacrylamide gel electrophoresis (50 μg protein/lane), transferred to nitrocellulose and probed with a primary anti-mSR-BI^495 antipeptide antibody (rabbit IgG fraction, 1:5000 dilution) and developed using a horseradish peroxidase labeled second antibody and ECL kit (5 min exposure, Amersham). Ponceau S staining was used as a control for gel loading and transfer.
Tissues of estrogen-treated rats were screened for expression of SR-BI as described above following treatment of rats with 17-α-ethylenyl estradiol (estrogen). The rats were treated for five consecutive days with subcutaneous injections of 5 mg/kg 17-α-ethylenyl estradiol in propylene glycol or with propylene glycol alone (sham-injected).

LDL receptor = assay: Immunoblot of LDL receptor expression in estrogen-treated rats; format: in vivo, rat; conditions: 5 mg/kg subcutaneous for five consecutive days, vs sham, liver
liver cells = assay: Uptake of lipid from fluorescently labeled HDL injected into estrogen-treated rats, liver; format: in vivo, rat; conditions: fluorescently labeled HDL injected into estrogen-treated vs sham-injected rats
adrenal tissues = assay: Uptake of lipid from fluorescently labeled HDL injected into estrogen-treated rats, adrenal; format: in vivo, rat; conditions: fluorescently labeled HDL injected into estrogen-treated vs sham-injected rats
[1] = target: murine scavenger receptor protein type BI (mSR-BI) (murine)
[2] = target: murine scavenger receptor protein type BI (mSR-BI) (murine); remark: listed apart in the source

Substance	SR-BI expression in liver (SR-BI; vs sham, liver)	SR-BI levels in tissues showing trace signal (SR-BI; vs sham, lung, testes and skin)	SR-BI expression in rat adrenal membranes (SR-BI; vs sham-injected controls, adrenal membranes)	LDL receptor expression (LDL receptor)	Uptake of HDL-derived lipids into liver cells (liver cells)	Uptake of lipid into adrenal tissues (adrenal tissues)	cell association of the lipid-labeled component of HDL (3H-cholesteryl oleate or DiI) [1]	total cellular cholesterol (free and esterified) after incubation with unlabeled HDL (20 µg protein/ml, 5 hrs) [2]
17-α-ethylenyl estradiol [estrogen]	dramatically downregulated	no change	upregulation	tremendous upregulation	no similar uptake	dramatically increased		
high density lipoprotein (HDL) prepared from human plasma (from UniProt P02647)							18%	20 % increase
